The subject of one experiment is Cryptococcus neoformans. The experiment can be described thus: PubChem AID 686997. The experiment is classed as functional, organism-based.
A further experiment has as its target Beta-galactosidase (Escherichia coli, UniProt Q8VNN2). The experiment is described as follows: Dose response counterscreen for EBI2 assay utilizing the enzyme, b-galactosidase. It counts as functional. (A counterscreen serves to expose hits that act by an unwanted route or on another target.)
The next experiment concerns Vero. The experiment can be described thus: viability loss in Vero cells – cell-based, plate reader, cherry-pick samples, cytotoxicity control, dose response (AID 687020). The experiment is classed as functional. The conditions noted are these: Chlorocebus sabaeus.
Experiment [1] concerns the target Fructose-bisphosphate aldolase (Mycobacterium tuberculosis, UniProt P9WQA3). The experiment is described as follows: Fluorescence-based biochemical high throughput dose response assay for inhibitors of the fructose-bisphosphate aldolase (FBA) of M. tuberculosis. It counts as functional.
A further experiment addresses Steroidogenic factor 1 (Homo sapiens, UniProt Q13285). The experiment can be described thus: Counterscreen for inverse agonists of the liver receptor homolog-1 (LRH-1; NR5A2): Luminescence-based cell-based high throughput dose response assay to identify inverse agonists of the Steroidogenic Factor 1 Nuclear Receptor (SF1; NR5A1). It counts as functional.
Experiment [2] has as its target Nuclear receptor subfamily 5 group A member 2 (Homo sapiens, UniProt O00482). It counts as functional, cell-based.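 Further: HEK293T cells transfected with LRH-1 and a StAR promoter luciferase reporter; potency for inhibitors that lower LRH-1 driven reporter light.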
The nature of experiment [3]: nonselective StAR promoter luciferase inhibitors – cell-based, luminescence, luciferase reporter, counter-screen for LRH-1 inverse agonist project, dose response (AID 651969). It counts as functional. Background: In a reporter assay the amount or activity of a reporter protein is the signal.
Experiment [4] deals with T1, Heat shock factor protein 1 (Mus musculus, UniProt P38532).
T1 sequence (P38532 whole entry): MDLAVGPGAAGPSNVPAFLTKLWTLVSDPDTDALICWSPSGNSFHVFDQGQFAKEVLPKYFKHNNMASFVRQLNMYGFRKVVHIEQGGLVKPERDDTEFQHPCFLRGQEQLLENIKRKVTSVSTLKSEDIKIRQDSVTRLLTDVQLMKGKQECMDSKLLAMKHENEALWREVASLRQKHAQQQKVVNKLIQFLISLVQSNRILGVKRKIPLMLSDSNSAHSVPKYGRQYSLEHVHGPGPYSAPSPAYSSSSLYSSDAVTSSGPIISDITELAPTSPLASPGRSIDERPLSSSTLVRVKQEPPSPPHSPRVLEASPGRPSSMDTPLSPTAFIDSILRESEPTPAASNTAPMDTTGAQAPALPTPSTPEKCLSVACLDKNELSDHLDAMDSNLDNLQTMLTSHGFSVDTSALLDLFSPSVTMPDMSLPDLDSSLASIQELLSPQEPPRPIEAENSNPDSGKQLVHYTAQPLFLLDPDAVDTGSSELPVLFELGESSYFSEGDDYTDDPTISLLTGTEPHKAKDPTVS
The experiment is described as follows: decrease of HSF1-responsive luciferase luminescence – cell-based, NIH3T3, dose retest, confirmation (AID 2382).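 Further: NIH3T3 fibroblasts with HSF1-driven luciferase reporter stressed by proteasome inhibitor MG132; luminescence from HSF1-driven luciferase expression after 8 hours of MG132 stress.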 It counts as functional.

Experiment [5] concerns the target T2, Interleukin-8 (Homo sapiens, UniProt P10145).
T2 sequence (P10145 whole entry): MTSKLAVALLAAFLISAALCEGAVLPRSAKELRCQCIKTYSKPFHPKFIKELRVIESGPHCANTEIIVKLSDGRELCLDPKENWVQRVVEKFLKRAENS
The experiment can be described thus: Dose Response confirmation of uHTS small molecule hits for cystic fibrosis induced NFkb Inhibitors in a PAF-induced IL8 counterscreen. To be noted: read-out: IC50_Mean. The experiment is classed as functional.

In experiment [6] the target is T2, Interleukin-8. The experiment is described as follows: Dose Response confirmation of uHTS small molecule hits for cystic fibrosis induced NFkb Inhibitors in a TNFa-induced IL8 counterscreen. The conditions noted are these: read-out: IC50_Mean. It counts as functional.
Experiment [7] is described as follows: general mammalian cell viability loss – inhibitor set, cherry-pick, set 2, cytotoxicity control for miR-122 modulator project, dose response (AID 720697). The experiment is classed as functional, cell-based.
Another experiment concerns INS1. The experiment is described as follows: INS-1E survival protection against cytokine death – cell-based, luminescence, retest, dose response (AID 449756).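 Further: cell death triggered by IL-1 beta plus TNF-alpha plus IFN-gamma mixture; protective hits raise ATP signal compared with cytokine alone wells.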 The experiment is classed as functional. The conditions noted are these: Rattus norvegicus.
Experiment [8] in a line: cells. It counts as functional, cell-based.
The nature of experiment [9]: cells. It counts as functional, cell-based. This is another data set of the same source.
Experiment [10] can be described thus: HGIII-sPLA2 enzyme inhibition potency – biochemical, QFRET, IC50, dose response (AID 743457).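 Further: green fluorescence rise as the enzyme cleaves BODIPY PC-A2 in liposomes.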

Structures are written as SMILES. The source made the active and inactive calls.

Sequence of Nuclear receptor subfamily 5 group A member 2 (O00482 whole entry): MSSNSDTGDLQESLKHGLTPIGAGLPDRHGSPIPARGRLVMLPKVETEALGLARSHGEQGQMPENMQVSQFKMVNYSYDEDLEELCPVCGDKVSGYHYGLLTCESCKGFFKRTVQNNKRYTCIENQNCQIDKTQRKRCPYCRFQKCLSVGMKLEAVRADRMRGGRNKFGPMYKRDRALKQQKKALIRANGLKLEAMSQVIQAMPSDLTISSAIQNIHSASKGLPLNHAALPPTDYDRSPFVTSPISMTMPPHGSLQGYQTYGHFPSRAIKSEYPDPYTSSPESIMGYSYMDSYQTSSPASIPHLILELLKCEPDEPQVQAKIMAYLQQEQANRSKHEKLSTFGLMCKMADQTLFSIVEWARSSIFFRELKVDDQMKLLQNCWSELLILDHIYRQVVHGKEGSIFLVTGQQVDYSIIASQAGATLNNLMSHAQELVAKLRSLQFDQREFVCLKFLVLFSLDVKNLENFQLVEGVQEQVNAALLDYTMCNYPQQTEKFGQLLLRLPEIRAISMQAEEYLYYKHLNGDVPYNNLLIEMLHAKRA
Sequence of Fructose-bisphosphate aldolase (P9WQA3 whole entry): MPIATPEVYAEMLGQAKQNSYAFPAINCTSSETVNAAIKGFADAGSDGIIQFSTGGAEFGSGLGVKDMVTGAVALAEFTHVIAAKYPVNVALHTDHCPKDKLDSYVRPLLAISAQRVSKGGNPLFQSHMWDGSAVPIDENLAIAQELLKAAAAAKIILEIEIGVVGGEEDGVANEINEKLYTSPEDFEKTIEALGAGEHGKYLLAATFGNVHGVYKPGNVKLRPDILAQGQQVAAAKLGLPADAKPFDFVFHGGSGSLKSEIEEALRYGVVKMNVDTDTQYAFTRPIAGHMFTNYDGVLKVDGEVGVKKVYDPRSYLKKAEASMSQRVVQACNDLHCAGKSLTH
Sequence of Steroidogenic factor 1 (Q13285 whole entry): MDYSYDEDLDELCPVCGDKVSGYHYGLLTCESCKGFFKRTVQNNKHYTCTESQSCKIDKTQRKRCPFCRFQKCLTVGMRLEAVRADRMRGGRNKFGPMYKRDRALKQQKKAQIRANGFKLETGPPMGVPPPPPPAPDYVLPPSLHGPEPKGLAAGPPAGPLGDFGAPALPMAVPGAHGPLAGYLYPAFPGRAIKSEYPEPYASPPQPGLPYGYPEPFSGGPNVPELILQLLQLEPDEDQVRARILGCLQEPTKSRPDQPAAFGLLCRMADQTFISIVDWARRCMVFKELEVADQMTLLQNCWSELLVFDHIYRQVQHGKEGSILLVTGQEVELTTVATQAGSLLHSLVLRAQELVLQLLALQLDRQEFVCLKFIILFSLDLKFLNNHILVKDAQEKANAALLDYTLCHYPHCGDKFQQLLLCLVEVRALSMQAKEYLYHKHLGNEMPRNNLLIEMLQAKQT
Sequence of Beta-galactosidase (Q8VNN2 whole entry): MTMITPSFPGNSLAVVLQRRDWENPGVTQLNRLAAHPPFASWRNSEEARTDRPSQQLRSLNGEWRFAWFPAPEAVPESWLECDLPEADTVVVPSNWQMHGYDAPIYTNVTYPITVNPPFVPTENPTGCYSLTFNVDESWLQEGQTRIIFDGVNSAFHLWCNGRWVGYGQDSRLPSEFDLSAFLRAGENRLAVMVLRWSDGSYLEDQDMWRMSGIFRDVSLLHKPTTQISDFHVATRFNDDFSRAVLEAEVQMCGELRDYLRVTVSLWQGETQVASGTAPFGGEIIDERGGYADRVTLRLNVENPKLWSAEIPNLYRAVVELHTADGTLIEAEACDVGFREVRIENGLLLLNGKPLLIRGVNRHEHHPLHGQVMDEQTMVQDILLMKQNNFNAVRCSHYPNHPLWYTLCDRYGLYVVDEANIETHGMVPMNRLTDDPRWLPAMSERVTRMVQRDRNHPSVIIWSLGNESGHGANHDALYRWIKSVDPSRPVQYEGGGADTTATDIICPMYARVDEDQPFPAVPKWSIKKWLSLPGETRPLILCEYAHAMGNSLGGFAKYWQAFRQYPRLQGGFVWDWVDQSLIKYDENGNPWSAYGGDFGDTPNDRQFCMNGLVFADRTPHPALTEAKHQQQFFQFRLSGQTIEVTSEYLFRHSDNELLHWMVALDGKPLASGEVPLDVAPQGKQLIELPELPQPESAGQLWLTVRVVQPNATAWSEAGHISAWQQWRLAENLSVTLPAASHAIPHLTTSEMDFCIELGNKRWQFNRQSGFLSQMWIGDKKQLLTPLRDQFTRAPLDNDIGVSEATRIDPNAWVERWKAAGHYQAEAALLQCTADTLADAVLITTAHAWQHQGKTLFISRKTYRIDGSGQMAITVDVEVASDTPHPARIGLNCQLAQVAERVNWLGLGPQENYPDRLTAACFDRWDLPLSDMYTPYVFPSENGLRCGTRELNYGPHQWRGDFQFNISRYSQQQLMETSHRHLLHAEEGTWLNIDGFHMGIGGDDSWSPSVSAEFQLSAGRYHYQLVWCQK

With `COC(=O)C1=C(C)N(Cc2ccc(F)cc2)C(=S)NC1c1ccccc1` (stereo not given), the AC50 (commonly the concentration at which the activity in the assay is half-maximal) with Cryptococcus neoformans was > 76 µM (inactive).
Take `O=C(/C=C/c1ccc(Cl)cc1)N1CCN(c2c(Cl)cccc2[N+](=O)[O-])CC1`: at Beta-galactosidase, the IC50 is > 80 µM (inactive).
For `CC(=O)Nc1cccc(C(=O)OC(C)C(=O)NC(=O)NC2CCCCC2)c1` (stereo not given), the AC50 in the experiment with Vero was 23.6 µM (active).
Regarding `CCc1c(C)c2ccc(OCC(N)=O)cc2oc1=O`, the IC50 in [1] is > 370 nM (active).
As for `COC(=O)c1ccc(NC(=O)CSc2nc3ccc[nH]c-3n2)cc1`, the figures for the IC50 (on Steroidogenic factor 1; in experiment [2]; in experiment [3]) were 978 nM (active), 35.9 µM (inactive) and 35.9 µM (inactive), respectively.
In the case of `CCN(c1ccc(OC)cc1)c1[nH]cnc2ncnc1-2`, the EC50 (in general, the midpoint of the concentration-response curve) in [4] is 21.8 µM (active). Besides, the IC50 was 14.5 µM (inactive) on Interleukin-8 [5] and > 79 µM (inactive) at Interleukin-8 [6].
Take `CCCC(=O)Nc1ccc2c(c1)C(=O)N(C)[C@@H]1CC[C@H](CC(=O)NCC(F)(F)F)O[C@H]1CO2`: the AC50 in experiment [7] was 2.15 µM (active).
On to `CCOC(=O)N1CCN(S(=O)(=O)c2ccc(C(=O)NNc3nc4c(C)cc(C)cc4s3)cc2)CC1`, for which, in the experiment with INS1, the AC50 is 4.46 µM (active). Also, the figures for the EC50 in the experiment “cells [8]” and in the experiment “cells [9]” were > 350 µM (not active) and 14.5 µM (active), respectively. Besides, the IC50 in experiment [10] was 24.6 µM (inactive).

These data come from ChEMBL document CHEMBL1201862, “PubChem BioAssay data set” (2004).
